Here are results for 44 molecules from patent US20120328569A1, “INHIBITORS OF HEPATITIS C VIRUS NS5B POLYMERASE” (priority 2010, published 2012).

For this test, the system named is HCV genotype 1b replicon. The test is described as follows: HCV replicon assay, cell ELISA with antibody to replicon-encoded NS3/4A (genotype 1b replicon). Type of test: cell-based, hepatitis C virus. Conditions: Hepatitis C virus, 96 h. In short, it runs like this:
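Replicon-harbouring cells carrying neomycin phosphotransferase were incubated 96 h with a compound dilution series without G418. Replication was quantified indirectly by a cell ELISA detecting replicon-encoded NS3/4A. IC50 values were calculated relative to DMSO control with a four-parameter fit.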

Setting [1] is: read-out: Replicon 1b IC50 (nM), HCV genotype 1b replicon cells, 96 hours incubation, NS3/4A ELISA readout.
Where [2] appears, read: read-out: 1b IC50(nM), HCV genotype 1b replicon, 96 hours incubation, NS3/4A cell ELISA.

Structures are written as SMILES. Like-named read-outs stand apart in the source and are kept apart here.

Regarding `CNC(=O)c1c(-c2ccc(F)cc2)oc2cc(N(C)S(C)(=O)=O)c(-c3cccc(-c4nc5ccc(=O)[nH]c5[nH]4)c3)cc12` [Example 328], the IC50 under setting [1] worked out at 13.5 nM.

On to `CNC(=O)c1c(-c2ccc(F)cc2)oc2cc(N(C)S(C)(=O)=O)c(-c3cccc(-c4nc5ccc(OS(C)(=O)=O)nc5[nH]4)c3)cc12` [Example 329], for which, under setting [1], the IC50 is 4.9 nM.

Regarding `CNC(=O)c1c(-c2ccc(F)cc2)oc2cc(N(C)S(C)(=O)=O)c(-c3cccc(-c4nc5c(C)ccnc5[nH]4)c3)cc12` [Example 330], the IC50 under setting [1] worked out at 2.7 nM.

Consider `CNC(=O)c1c(-c2ccc(F)cc2)oc2cc(N(C)S(C)(=O)=O)c(-c3cccc(-c4nc5cc(Cl)cnc5[nH]4)c3)cc12` [Example 331], for which the IC50 under setting [1] was found to be 1.8 nM.

Turning to `CNC(=O)c1c(-c2ccc(F)cc2)oc2cc(N(C)S(C)(=O)=O)c(-c3cccc(-c4nc5ccccc5n4C)c3)cc12` [Example 332], the IC50 under setting [1] was 9.6 nM.

Turning to `CNC(=O)c1c(-c2ccc(F)cc2)oc2cc(N(C)S(C)(=O)=O)c(-c3cccc(-c4nc5ccncc5[nH]4)c3)cc12` [Example 333], the IC50 under setting [1] is 6 nM.

As to `CNC(=O)c1c(-c2ccc(F)cc2)oc2cc(N(C)S(C)(=O)=O)c(-c3ccc(F)c(-c4nc5ccncc5[nH]4)c3)cc12` [Example 334], the IC50 under setting [1] was determined as 3.3 nM.

As to `CNC(=O)c1c(-c2ccc(F)cc2)oc2cc(N(C)S(C)(=O)=O)c(-c3cc(-c4nc5ccncc5[nH]4)ccc3F)cc12` [Example 335], under setting [1], the IC50 came to 26.4 nM.

On to `CNC(=O)c1c(-c2ccc(F)cc2)oc2cc(N(C)S(C)(=O)=O)c(-c3cccc(-c4nc5nccnc5[nH]4)c3)cc12` [Example 336], for which, under setting [1], the IC50 turned out to be 2.7 nM.

As for `CNC(=O)c1c(-c2ccc(F)cc2)oc2cc(N(C)S(C)(=O)=O)c(-c3ccc(F)c(-c4nc5nccnc5[nH]4)c3)cc12` [Example 337], under setting [1], the IC50 was determined as 7.8 nM.

Regarding `CNC(=O)c1c(-c2ccc(F)cc2)oc2cc(N(C)S(C)(=O)=O)c(-c3ccc(OC)c(-c4nc5nccnc5[nH]4)c3)cc12` [Example 338], the IC50 under setting [1] came to 1.5 nM.

Regarding `CNC(=O)c1c(-c2ccc(F)cc2)oc2cc(N(C)S(C)(=O)=O)c(-c3cc(OC)cc(-c4nc5nccnc5[nH]4)c3)cc12` [Example 339], under setting [1], the IC50 came to 4 nM.

Regarding `CNC(=O)c1c(-c2ccc(F)cc2)oc2cc(N(C)S(C)(=O)=O)c(-c3ccc(Cl)c(-c4nc5nccnc5[nH]4)c3)cc12` [Example 340], the IC50 under setting [1] amounted to 15.8 nM.

Consider `CNC(=O)c1c(-c2ccc(F)cc2)oc2cc(N(C)S(C)(=O)=O)c(-c3cccc(-c4nc5cncnc5[nH]4)c3)cc12` [Example 341], for which, under setting [1], the IC50 was 14.6 nM.

Turning to `CNC(=O)c1c(-c2ccc(F)cc2)oc2cc(N(C)S(C)(=O)=O)c(-c3ccc(F)c(-c4nc5cncnc5[nH]4)c3)cc12` [Example 342], the IC50 under setting [1] was found to be 5.1 nM.

Turning to `CNC(=O)c1c(-c2ccc(F)cc2)oc2cc(N(C)S(C)(=O)=O)c(-c3ccc(OC)c(-c4nc5cncnc5[nH]4)c3)cc12` [Example 344], under setting [1], the IC50 was found to be 2.2 nM.

For the molecule `CNC(=O)c1c(-c2ccc(F)cc2)oc2cc(N(C)S(C)(=O)=O)c(-c3cc(OC)cc(-c4nc5cncnc5[nH]4)c3)cc12` [Example 345], the IC50 under setting [1] amounted to 2.1 nM.

Consider `CNC(=O)c1c(-c2ccc(F)cc2)oc2cc(N(C)S(C)(=O)=O)c(-c3cccc(-c4nc5cncnc5[nH]4)c3O)cc12` [Example 346], for which the IC50 under setting [1] came to 165 nM.

For the molecule `CNC(=O)c1c(-c2ccc(F)cc2)oc2cc(N(C)S(C)(=O)=O)c(-c3ccc(Cl)c(-c4nc5cncnc5[nH]4)c3)cc12` [Example 347], the IC50 under setting [1] stood at 8.1 nM.

For the molecule `CNC(=O)c1c(-c2ccc(F)cc2)oc2cc(N(C)S(C)(=O)=O)c(-c3cc(C#N)cc(-c4nc5cncnc5[nH]4)c3)cc12` [Example 348], the IC50 under setting [1] was found to be 72.7 nM.

Consider `CNC(=O)c1c(-c2ccc(F)cc2)oc2cc(N(C)S(C)(=O)=O)c(-c3ccc(OC)c(-c4nc5c(N)ncnc5[nH]4)c3)cc12` [Example 349], for which, under setting [1], the IC50 worked out at 5.7 nM.

Turning to `CNC(=O)c1c(-c2ccc(F)cc2)oc2cc(N(C)S(C)(=O)=O)c(-c3cc(F)cc(-c4nc5c(N)ncnc5[nH]4)c3)cc12` [Example 350], the IC50 under setting [1] worked out at 0.7 nM.

For `CNC(=O)c1c(-c2ccc(F)cc2)oc2cc(N(C)S(C)(=O)=O)c(-c3cccc(-c4ccc5cccnc5c4)c3)cc12` [Example 353], the IC50 under setting [1] amounted to 4.2 nM.

Regarding `CNC(=O)c1c(-c2ccc(F)cc2)oc2cc(N(C)S(C)(=O)=O)c(-c3cccc(-c4cc5ccc(OC)cc5[nH]4)c3)cc12` [Example 356], under setting [1], the IC50 was found to be 5.9 nM.

Consider `CNC(=O)c1c(-c2ccc(F)cc2)oc2cc(N(C)S(C)(=O)=O)c(-c3cccc(-c4cc5ccc(OCc6ccccc6)cc5[nH]4)c3)cc12` [Example 360], for which the IC50 under setting [1] turned out to be 30.5 nM.

For the molecule `CNC(=O)c1c(-c2ccc(F)cc2)oc2cc(N(C)S(C)(=O)=O)c(-c3cccc(-c4cc5ccccc5[nH]4)c3)cc12` [Example 366, 5-(3-(1H-indol-2-yl)phenyl)-2-(4-fluorophenyl)-N-methyl-6-(N-methylmethylsulfonamido)benzofuran-3-carboxamide], under setting [1], the IC50 was 4.2 nM.

Regarding `CNC(=O)c1c(-c2ccc(F)cc2)oc2cc(N(C)S(C)(=O)=O)c(-c3cccc(-c4[nH]c5ccccc5c4Cl)c3)cc12` [Example 381], under setting [1], the IC50 turned out to be 5.1 nM.

Regarding `CNC(=O)c1c(-c2ccc(F)cc2)oc2cc(N(C)S(C)(=O)=O)c(-c3cccc(-c4[nH]c5ccccc5c4Br)c3)cc12` [Example 382, 5-(3-(3-bromo-1H-indol-2-yl)phenyl)-2-(4-fluorophenyl)-N-methyl-6-(N-methylmethylsulfonamido)benzofuran-3-carboxamide], under setting [1], the IC50 is 8.9 nM.

In the case of `CNC(=O)c1c(-c2ccc(F)cc2)oc2cc(N(C)S(C)(=O)=O)c(-c3cccc(-c4[nH]c5ncccc5c4CO)c3)cc12` [Example 383, 2-(4-fluorophenyl)-5-(3-(3-(hydroxymethyl)-1H-pyrrolo[2,3-b]pyridin-2-yl)phenyl)-N-methyl-6-(N-methylmethylsulfonamido)benzofuran-3-carboxamide], under setting [1], the IC50 worked out at 2.5 nM.

For `CNC(=O)c1c(-c2ccc(F)cc2)oc2cc(N(CCCO)S(C)(=O)=O)c(-c3cccc(-c4nc5ncccc5o4)c3)cc12` [Example 384, 2-(4-fluorophenyl)-6-(N-(3-hydroxypropyl)methylsulfonamido)-N-methyl-5-(3-(oxazolo[4,5-b]pyridin-2-yl)phenyl)benzofuran-3-carboxamide], the IC50 under setting [1] worked out at 0.9 nM.

`CNC(=O)c1c(-c2ccc(F)cc2)oc2cc(N(CCN3CCOCC3)S(C)(=O)=O)c(-c3cccc(-c4nc5ncccc5o4)c3)cc12` [Example 397, 2-(4-fluorophenyl)-N-methyl-6-(N-(2-morpholinoethyl)methylsulfonamido)-5-(3-(oxazolo[4,5-b]pyridin-2-yl)phenyl)benzofuran-3-carboxamide]: the IC50 under setting [1] turned out to be 3.6 nM.

In the case of `CNC(=O)c1c(-c2ccc(F)cc2)oc2cc(N(C)S(=O)(=O)c3ccccc3)c(-c3cccc(-c4nc5ncccc5o4)c3)cc12` [Example 400, 2-(4-fluorophenyl)-N-methyl-6-(N-methylphenylsulfonamido)-5(3-(oxazolo[4,5-b]pyridin-2-yl)phenyl)benzofuran-3-carboxamide], the IC50 under setting [1] came out at 303 nM.

For `CNC(=O)c1c(-c2ccc(F)cc2)oc2cc(N(C)S(C)(=O)=O)c(-c3ccc(OC)c(-c4nc5c(F)cccc5o4)c3)cc12` [Example 402, 5-(3-(4-fluorobenzo[d]oxazol-2-yl)-4-methoxyphenyl)-2-(4-fluorophenyl)-N-methyl-6-(N-methylmethylsulfonamido)benzofuran-3-carboxamide], the IC50 under setting [1] was 0.9 nM.

As to `CNC(=O)c1c(-c2ccc(F)cc2)oc2cc(N(C)S(C)(=O)=O)c(-c3ccc(OC)c(-c4nc5c(C#N)cccc5o4)c3)cc12` [Example 403, 5-(3-(4-cyanobenzo[d]oxazol-2-yl)-4-methoxyphenyl)-2-(4-fluorophenyl)-N-methyl-6-(N-methylmethylsulfonamido)benzofuran-3-carboxamide], under setting [1], the IC50 turned out to be 3.8 nM.

Regarding `CNC(=O)c1c(-c2ccc(F)cc2)oc2cc(N(C)S(C)(=O)=O)c(-c3ccc(OC)c(-c4nc5cc(F)ccc5o4)c3)cc12` [Example 404], the IC50 under setting [1] stood at 2.6 nM.

Consider `CNC(=O)c1c(-c2ccc(F)cc2)oc2cc(N(C)S(C)(=O)=O)c(-c3ccc(Cl)c(-c4nc5c(F)cccc5o4)c3)cc12` [Example 405], for which, under setting [1], the IC50 worked out at 4.7 nM.

With `CNC(=O)c1c(-c2ccc(F)cc2)oc2cc(N(C)S(C)(=O)=O)c(-c3cc(Cl)cc(-c4nc5c(F)cccc5o4)c3)cc12` [Example 406], the IC50 under setting [1] was 15.1 nM.

For `CNC(=O)c1c(-c2ccc(F)cc2)oc2cc(N(C)S(C)(=O)=O)c(-c3ccc(OC)c(-c4nc5cccc(C#N)c5o4)c3)cc12` [Example 407], the IC50 under setting [1] is 2.8 nM.

Consider `CNC(=O)c1c(-c2ccc(F)cc2)oc2cc(N(C)S(C)(=O)=O)c(-c3ccc(OC)c(-c4nc5c(F)cc(F)cc5o4)c3)cc12` [Example 408], for which, under setting [1], the IC50 is 3.8 nM.

With `CNC(=O)c1c(-c2ccc(F)cc2)oc2cc(N(C)S(C)(=O)=O)c(-c3ccc(OC)c(-c4nc5c(F)ccc(F)c5o4)c3)cc12` [Example 409], the IC50 under setting [1] came to 2.1 nM.

Regarding `CNC(=O)c1c(-c2ccc(F)cc2)oc2cc(N(C)S(C)(=O)=O)c(-c3ccc(OC)c(-c4nc5cc(F)cc(F)c5o4)c3)cc12` [Example 410], under setting [1], the IC50 came to 0.5 nM.

As for `CNC(=O)c1c(-c2ccc(F)cc2)oc2cc(N(C)S(C)(=O)=O)c(-c3ccc(OC)c(-c4nc5c(F)cccc5o4)c3)cc12` [Example 411, 5-[3-(4-Fluoro-benzooxazol-2-yl)-4-methoxy-phenyl]-2-(4-fluoro-phenyl)-6-(methanesulfonyl-methyl-amino)-benzofuran-3-carboxylic acid methylamide], under setting [2], the IC50 is 7.1 nM.

On to `CNC(=O)c1c(-c2ccc(F)cc2)oc2cc(N(C)S(C)(=O)=O)c(-c3ccc(S(C)(=O)=O)c(-c4nc5c(Cl)cccc5o4)c3)cc12` [Example 420], for which the IC50 under setting [2] amounted to 5.08 nM.

In the case of `CNC(=O)c1c(-c2ccc(F)cc2)oc2cc(N(C)S(C)(=O)=O)c(-c3cc(-c4nc5c(F)cccc5o4)c4oc(=O)[nH]c4c3)cc12` [Example 425], under setting [2], the IC50 was found to be 3.04 nM.
